In US9493468B2, “Antifungal 5,6-dihydro-4H-pyrrolo[1,2-a][1,4]benzo-diazepines and 6H-pyrrolo[1,2-a][1,4]benzodiazepines substituted with heterocyclic derivatives” (Janssen Pharmaceutica NV, priority 2011, dated 2016):

Assays:
Type in all cases: cell-based
[1] = tested on: Candida parapsilosis; assay: Antifungal activity in vitro, resazurin growth inhibition: Candida parapsilosis (B66126)
Procedure: (§1) The standard susceptibility screen is performed in 96-well plates (U-bottom, Greiner Bio-One). Serial dilutions (2-fold or 4-fold) of 20 mM compound stock solutions are made in 100% DMSO, followed by an intermediate dilution step in water. These serial dilutions (10 μl) are then spotted onto test-plates that can be stored in the dark at 4° C. for a maximum period of 2 weeks. An adequate broad dose-range is included with 64 μM as the highest in-test concentration. The culture medium RPMI-1640 is supplemented with L-glutamine, 2% glucose and buffered with 3-(N-morpholino)-propanesulfonic acid (MOPS) at pH 7.0±0.1.
(§2) The different fungal species/isolates (Table 3a) are cryopreserved and 1/1000 diluted in medium just prior to use. A standard inoculum of 200 μl containing 10^3 colony-forming unit (cfu) is then added to each well. A positive control (100% growth=fungal culture without antifungal) and a negative control (0% growth ═RPMI-MOPS medium) are included on each plate. Optimal incubation time and temperature are dependent on the fungal species and vary from 24 h for yeasts (37° C.) to one week or more for dermatophytes (27° C.). Inhibition of fungal growth is measured after adding 10 μl of 0.005% (w/v) resazurin (Sigma Aldrich) to each well, based on the principle that living cells convert the non-fluorescent blue resazurin into the pink and fluorescent resorufin, allowing fluorimetric reading (λex 550 nm and λem 590 nm) after an additional incubation period (‘resa’ time mentioned in Table 3a).

[2] = tested on: Aspergillus fumigatus; assay: Antifungal activity in vitro, resazurin growth inhibition: Aspergillus fumigatus (B42928)
Procedure: as §1, §2

[3] = tested on: Trichophyton mentagrophytes; assay: Antifungal activity in vitro, resazurin growth inhibition: Trichophyton mentagrophytes (B70554)
Procedure: as §1, §2

[4] = tested on: Cryptococcus neoformans; assay: Antifungal activity in vitro, resazurin growth inhibition: Cryptococcus neoformans (B66663)
Procedure: as §1, §2

[5] = tested on: Sporothrix schenkii; assay: Antifungal activity in vitro, resazurin growth inhibition: Sporothrix schenkii (B62482)
Procedure: as §1, §2

[6] = tested on: Microsporum canis; assay: Antifungal activity in vitro, resazurin growth inhibition: Microsporum canis (B68128)
Procedure: as §1, §2

[7] = tested on: Trichophyton rubrum; assay: Antifungal activity in vitro, resazurin growth inhibition: Trichophyton rubrum (B68183)
Procedure: as §1, §2

| Compound | Inf. D: Candida parapsilosis B66126, pIC50 [1] | Inf. E: Aspergillus fumigatus B42928, pIC50 [2] | Inf. G: Trichophyton mentagrophytes B70554, pIC50 [3] | Inf. F: Cryptococcus neoformans B66663, pIC50 [4] | Inf. A: Sporothrix schenkii B62482, pIC50 [5] | Inf. B: Microsporum canis B68128, pIC50 [6] | Inf. C: Trichophyton rubrum B68183, pIC50 [7] |
| --- | --- | --- | --- | --- | --- | --- | --- |
| CC(=O)c1ccc(C2=NCc3c(F)cccc3-n3cccc32)cn1 [Compound 93] | <4.19 | 5.02 | 5.63 | <4.19 | <4.19 | 5.26 | 6.16 |
| Br.Clc1ccc2c(c1)-n1cccc1C(c1ccncc1)NC2 (racemic) [Compound 23] | <4.19 | <4.19 | 4.39 | 4.57 | <4.19 | 4.72 | 5.00 |
| Cc1ccc(Cl)c2c1-n1cccc1C(c1cc3ccccc3s1)NC2.Cl (racemic) [Compound 57] | <4.19 | <4.19 | <4.19 | <4.19 | <4.19 | 5.24 | 5.10 |
| CCc1ccc(C2NCc3c(Cl)cccc3-n3cccc32)cn1.Cl (racemic) [Compound 14] | <4.19 | <4.19 | 4.74 | 4.28 | <4.19 | 5.30 | 5.30 |
| Fc1cccc2c1CN=C(c1cnc(Cl)c(Cl)c1)c1cccn1-2 [Compound 80] | <4.19 | 5.59 | 5.23 | <4.19 | 5.42 | 5.09 | 5.79 |
| COc1ccc2oc(C3NCc4c(Cl)cccc4-n4cccc43)cc2c1.Cl (racemic) [Compound 44] | <4.19 | <4.19 | 4.77 | <4.19 | <4.19 | 5.31 | 5.20 |
| CCc1nc(C2=NCc3c(Cl)cccc3-n3cccc32)cs1 [Compound 64] | <4.19 | <4.19 | 5.94 | 4.70 | <4.19 | 5.42 | 5.46 |
| Cc1ccc2cc(C3NCc4c(Cl)cccc4-n4cccc43)oc2c1.Cl (racemic) [Compound 39] | <4.19 | 5.52 | 5.15 | <4.19 | 5.52 | 5.52 | 5.15 |
| Cc1cc(C2=NCc3c(C)cccc3-n3cccc32)ccn1 [Compound 97] | <4.49 | <4.49 | 4.83 | <4.49 | <4.49 | 4.87 | 5.99 |
| Clc1ccc2c(c1)-n1cccc1C(c1ccc3scc(Cl)c3c1)=NC2 [Compound 178] | <4.19 | 5.93 | 4.26 | 6.49 | <4.19 | <4.19 | 4.37 |
| Fc1cc(Cl)c2c(c1)-n1cccc1C(c1ccc(Cl)nc1)=NC2 [Compound 78] | 5.07 | 5.42 | 4.47 | <4.19 | <4.19 | 5.41 | 6.18 |
| Cl.Fc1ccc2oc(C3NCc4c(Cl)cc(Cl)cc4-n4cccc43)cc2c1 (racemic) [Compound 49] | <4.19 | <4.19 | <4.19 | <4.19 | <4.80 | 4.82 | 5.28 |
| Cl.FC(F)(F)c1ccc(C2NCc3c(Cl)cccc3-n3cccc32)cn1 (racemic) [Compound 16] | <4.19 | <4.19 | 5.28 | 4.64 | <4.19 | 5.19 | 5.69 |
| Fc1cc(F)c2oc(C3=NCc4c(Cl)cc(Cl)cc4-n4cccc43)cc2c1 [Compound 129] | <4.19 | 5.61 | <4.19 | <4.19 | <4.19 | <4.19 | 4.96 |
| Cl.FC(F)(F)c1ccc(C2NCc3c(Cl)cccc3-n3cccc32)nn1 (racemic) [Compound 28] | <4.19 | <4.19 | 4.28 | <4.19 | <4.19 | 4.29 | 4.43 |
| Cc1cc(C2=NCc3c(Cl)cccc3-n3cccc32)ccn1 [Compound 96] | <4.19 | 4.40 | 5.00 | <4.19 | <4.19 | 4.80 | 5.10 |
| Clc1cccc2c1-n1cccc1C(c1ccc3scc(Cl)c3c1)=NC2 [Compound 179] | <4.19 | 4.49 | 4.69 | 4.67 | 4.41 | 4.80 | 5.03 |
| Cl.Clc1cccc2c1CNC(c1ccc3scc(Cl)c3c1)c1cccn1-2 (racemic) [Compound 58] | <4.19 | 4.48 | 5.09 | 4.58 | <4.19 | 5.08 | 6.29 |
| Cc1ccc2oc(C3=NCc4ccc(Cl)cc4-n4cccc43)cc2c1 [Compound 135] | <4.19 | <4.19 | <4.19 | 4.54 | <4.19 | 4.41 | 5.91 |
| Cc1ncc(C2=NCc3c(Cl)cccc3-n3cccc32)cn1 [Compound 100] | <4.19 | <4.19 | <4.19 | <4.19 | <4.19 | 4.21 | <4.19 |
| Cl.c1ccc2c(c1)CNC(c1cc3ccccc3s1)c1cccn1-2 (racemic) [Compound 52] | <4.19 | 5.30 | 5.70 | 6.00 | 5.40 | 5.70 | 6.13 |
| FC(F)(F)c1ncc(C2=NCc3c(Cl)cc(Cl)cc3-n3cccc32)cn1 [Compound 104] | <4.19 | 5.54 | <4.19 | <4.19 | <4.19 | <4.19 | 5.91 |
